Results from US11197859B2 (AUTIFONY THERAPEUTICS LIMITED, priority 2010, dated 2021).

Molecular target: T1, human Kv3.2 channels (hKv3.2) (Homo sapiens, UniProt Q96PR1)
T1 construct: expressed in transfected cells
T1 sequence (Q96PR1 1-638): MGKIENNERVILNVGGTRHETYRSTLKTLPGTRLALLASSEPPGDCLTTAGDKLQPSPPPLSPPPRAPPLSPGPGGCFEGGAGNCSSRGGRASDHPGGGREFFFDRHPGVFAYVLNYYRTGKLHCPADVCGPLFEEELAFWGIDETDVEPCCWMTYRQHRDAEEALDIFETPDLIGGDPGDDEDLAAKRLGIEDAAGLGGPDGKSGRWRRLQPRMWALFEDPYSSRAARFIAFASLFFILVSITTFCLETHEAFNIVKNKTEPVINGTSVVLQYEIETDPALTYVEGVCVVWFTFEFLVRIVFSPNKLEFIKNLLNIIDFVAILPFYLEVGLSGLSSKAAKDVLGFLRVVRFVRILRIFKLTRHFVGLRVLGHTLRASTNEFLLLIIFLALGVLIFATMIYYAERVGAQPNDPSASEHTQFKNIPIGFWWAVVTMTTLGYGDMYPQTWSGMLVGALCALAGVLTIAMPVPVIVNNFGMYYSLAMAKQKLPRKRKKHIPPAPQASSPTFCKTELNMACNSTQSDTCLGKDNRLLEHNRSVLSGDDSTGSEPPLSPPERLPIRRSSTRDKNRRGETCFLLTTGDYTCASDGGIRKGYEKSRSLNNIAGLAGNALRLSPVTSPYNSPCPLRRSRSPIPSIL
Assay: IonWorks Quattro electrophysiology, hKv3.2 currents, activation time constant (Tauact)
Type: cell-based
Conditions: hKv3.2, -15 mV pulse
Protocol: The ability of the compounds of the disclosure to modulate the voltage-gated potassium channel subtypes Kv3.2/3.1 may be determined using the following assay.
To assess compound effects on human Kv3.2 channels (hKv3.2), a stable cell line expressing hKv3.2 was created by transfecting Chinese Hamster Ovary (CHO)-K1 cells with a pCIH5-hKv3.2 vector. Cells were cultured in DMEM/F12 medium supplemented by 10% Foetal Bovine Serum, 1× non-essential amino acids (Invitrogen) and 500 ug/ml of Hygromycin-B (Invitrogen). Cells were grown and maintained at 37° C. in a humidified environment containing 5% CO2 in air.
The day of the experiment, cells were removed from the incubator and the culture medium removed. Cells were washed with 5 ml of Dulbecco's PBS (DPBS) calcium and magnesium free and detached by the addition of 3 ml Versene (Invitrogen, Italy) followed by a brief incubation at 37° C. for 5 minutes. The flask was tapped to dislodge cells and 10 ml of DPBS containing calcium and magnesium was added to prepare a cell suspension. The cell suspension was then placed into a 15 ml centrifuge tube and centrifuged for 2 min at 1200 rpm. After centrifugation, the supernatant was removed and the cell pellet re-suspended in 4 ml of DPBS containing calcium and magnesium using a 5 ml pipette to break up the pellet. Cell suspension volume was then corrected to give a cell concentration for the assay of approximately 3 million cells per ml.
Experiments were conducted at room temperature using IonWorks Quattro™ planar array electrophysiology technology (Molecular Devices Corp.) with PatchPlate™ PPC. Stimulation protocols and data acquisition were carried out using a microcomputer (Dell Pentium 4). Planar electrode hole resistances(Rp) were determined by applying a 10 mV voltage step across each well. These measurements were performed before cell addition. […] Following this, amphotericin-B solution was added to the intracellular face of the electrode to achieve intracellular access. Cells were held at −70 mV. Leak subtraction was conducted in all experiments by applying 50 ms hyperpolarizing (10 mV) prepulses to evoke leak currents followed by a 20 ms period at the holding potential before test pulses. From the holding potential of −70 mV, a first test pulse to −15 mV was applied for 100 ms and following a further 100 ms at −70 mV, a second pulse to 40 mV was applied for 50 ms. Cells were then maintained for a further 100 ms at −100 mV and then a voltage ramp from −100 mV to 40 mV was applied over 200 ms. In all experiments, the test pulses protocol was performed in the absence (pre-read) and presence (post-read) of the test compound. Pre- and post-reads were separated by the compound addition followed by a 3 minute incubation.
The intracellular solution contained the following (in mM): K-gluconate 100, KCl 54, MgCl2 3.2, HEPES 5, adjusted to pH 7.3 with KOH. Amphotericin-B solution was prepared as 50 mg/ml stock solution in DMSO and diluted to a final working concentration of 0.1 mg/ml in intracellular solution.
The final assay dilution was 200 and the final compound concentrations were in the range 50 μM to 50 nM.
The recordings were analysed and filtered using both seal resistance (>20 MΩ) and peak current amplitude (>500 pA at the voltage step of 40 mV) in the absence of compound to eliminate unsuitable cells from further analysis. Kv3 channel-mediated outward currents were measured determined from the mean amplitude of the current over the final 10 ms of the −15 mV voltage pulse minus the mean baseline current at −70 mV over a 10 ms period just prior to the −15 mV step. This Kv3 channel currents following addition of the test compound were then compared with the currents recorded prior to compound addition. […] The normalised data were analysed using ActivityBase or Excel software.

[1] = compound 3.1 μM (concentration giving ~0.3 nA current)
[2] = compound 0.4 μM (concentration giving ~0.3 nA current)
[3] = compound 1.6 μM (concentration giving ~0.3 nA current)
[4] = compound 0.8 μM (concentration giving ~0.3 nA current)

CCc1cc(Oc2ccc(N3C(=O)N[C@H](CC)C3=O)cn2)ccc1C#N
Tauact mean [1]: 8.2 ms

CC1COc2cccc(Oc3ccc(N4C(=O)NC(C)(C)C4=O)cn3)c2C1 (single isomer, unassigned) [Example 25, 5,5-dimethyl-3-{6-[(3-methyl-3,4-dihydro-2H-chromen-5-yl)oxy]-3-pyridinyl}-2,4-imidazolidinedione]
Tauact mean (compound 6.25 μM (concentration giving ~0.3 nA current)): 7.87 ms

CC1(C)NC(=O)N(c2ccc(Oc3cccc4c3C3(CC3)CO4)nc2)C1=O [Example 16, 5,5-dimethyl-3-[6-(spiro[1-benzofuran-3,1′-cyclopropan]-4-yloxy)-3-pyridinyl]-2,4-imidazolidinedione]
Tauact mean [2]: 19.3 ms

CC[C@@]1(C)NC(=O)N(c2cnc(Oc3ccc(C)c4c3C3(CC3)CO4)nc2)C1=O [Example 51, (5R)-5-ethyl-5-methyl-3-[2-(7-methylspiro[2H-benzofuran-3,1′-cyclopropane]-4-yl)oxypyrimidin-5-yl]imidazolidine-2,4-dione]
Tauact mean [3]: 21.3 ms

CC[C@H]1NC(=O)N(c2cnc(Oc3ccc(C)c4c3C3(CC3)CO4)nc2)C1=O [Example 61, (5R)-5-ethyl-3-[2-(7-methylspiro[2H-benzofuran-3,1′-cyclopropane]-4-yl)oxypyrimidin-5-yl]imidazolidine-2,4-dione]
Tauact mean [4]: 31.5 ms

CC[C@H]1NC(=O)N(c2ccc(Oc3ccc(C)c4c3C3(CC3)CO4)nc2)C1=O [Example 62, (5R)-5-ethyl-3-[6-(7-methylspiro[2H-benzofuran-3,1′-cyclopropane]-4-yl)oxy-3-pyridyl]imidazolidine-2,4-dione]
Tauact mean [2]: 34.8 ms

CC[C@H]1NC(=O)N(c2ccc(Oc3ccc(C)c4c3C(C)(C)CO4)nc2)C1=O [Example 63, (5R)-5-ethyl-3-{6-[(3,3,7-trimethyl-2,3-dihydro-1-benzofuran-4-yl)oxy]-3-pyridinyl}-2,4-imidazolidinedione]
Tauact mean [2]: 28.0 ms

CC[C@H]1NC(=O)N(c2cnc(Oc3ccc(C)c4c3C(C)(C)CO4)nc2)C1=O [Example 64, (5R)-5-ethyl-3-{2-[(3,3,7-trimethyl-2,3-dihydro-1-benzofuran-4-yl)oxy]-5-pyrimidinyl}-2,4-imidazolidinedione]
Tauact mean [3]: 25.0 ms

CC[C@@]1(C)NC(=O)N(c2ccc(Oc3ccc(C)c4c3C3(CC3)CO4)nc2)C1=O [Example 65, (5R)-5-ethyl-5-methyl-3-[6-(7-methylspiro[2H-benzofuran-3,1′-cyclopropane]-4-yl)oxy-3-pyridyl]imidazolidine-2,4-dione]
Tauact mean [4]: 24.0 ms

CC[C@H]1NC(=O)N(c2ccc(Oc3ccc(C#N)cc3C(C)(C)C)nc2)C1=O [RE3, 3-(1,1-dimethylethyl)-4-({5-[(4R)-4-ethyl-2,5-dioxo-1-imidazolidinyl]-2-pyridinyl}oxy)benzonitrile]
Tauact mean (compound 0.2 μM (concentration giving ~0.3 nA current)): 23.0 ms

CC[C@H]1NC(=O)N(c2ccc(Oc3ccc(C#N)c(C(C)C)c3)nc2)C1=O [RE4, 4-({5-[(4R)-4-ethyl-2,5-dioxo-1-imidazolidinyl]-2-pyridinyl}oxy)-2-(1-methylethyl)benzonitrile]
Tauact mean [4]: 9.2 ms

CC[C@H]1NC(=O)N(c2ccc(Oc3ccc(C#N)cc3C3CC3)nc2)C1=O [RE5, 3-cyclopropyl-4-({5-[(4R)-4-ethyl-2,5-dioxo-1-imidazolidinyl]-2-pyridinyl}oxy)benzonitrile]
Tauact mean [1]: 13.0 ms

CC[C@H]1NC(=O)N(c2ccc(Oc3ccc(C#N)c(OC(F)(F)F)c3)nc2)C1=O [RE7, 4-({5-[(4R)-4-ethyl-2,5-dioxo-1-imidazolidinyl]-2-pyridinyl}oxy)-2-[(trifluoromethyl)oxy]benzonitrile]
Tauact mean [1]: 10.4 ms

CC[C@H]1NC(=O)N(c2ccc(Oc3ccc(C#N)c(OC(C)C)c3)nc2)C1=O [RE8, 4-({5-[(4R)-4-ethyl-2,5-dioxo-1-imidazolidinyl]-2-pyridinyl}oxy)-2-[(1-methylethyl)oxy]benzonitrile]
Tauact mean [1]: 9.7 ms
